Structures are written as SMILES.

The target in the test is Beta-secretase 1 (Homo sapiens, UniProt P56817). Nature of the test: Fluorescence Resonance Energy Transfer (FRET) Assay. Conditions: 20 °C. On the procedure: The FRET assay was performed at 20 C on a FLUOstar (BMG Lab Technologies, D-77656 Offenburg) using 96-well microtiter plates (Dynex Microfluor 2, Chantilly, VA).
Sequence of Beta-secretase 1 (P56817 whole entry): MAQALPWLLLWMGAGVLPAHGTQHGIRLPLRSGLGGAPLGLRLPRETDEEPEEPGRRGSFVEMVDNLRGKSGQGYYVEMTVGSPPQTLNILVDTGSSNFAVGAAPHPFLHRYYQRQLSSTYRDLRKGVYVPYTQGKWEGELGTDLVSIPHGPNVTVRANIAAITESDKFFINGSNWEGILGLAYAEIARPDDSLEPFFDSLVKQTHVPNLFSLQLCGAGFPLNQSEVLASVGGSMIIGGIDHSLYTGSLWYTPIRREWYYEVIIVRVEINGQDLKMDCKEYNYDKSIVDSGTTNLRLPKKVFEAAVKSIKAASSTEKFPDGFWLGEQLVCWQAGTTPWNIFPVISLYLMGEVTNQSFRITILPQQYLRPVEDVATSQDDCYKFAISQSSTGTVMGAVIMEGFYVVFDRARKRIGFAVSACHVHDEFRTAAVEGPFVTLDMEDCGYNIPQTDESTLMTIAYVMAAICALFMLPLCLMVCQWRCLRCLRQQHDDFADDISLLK
On to `O=C1CN(Cc2cccc(C(F)(F)F)c2)C(=O)C1Sc1ccccc1` (configuration not stated) [N-Substituted tetramic acid, 89], for which the IC50 (usually the point on the concentration scale where inhibition reaches its midpoint) was above 200 µM.
For `COc1ccc(CN2CC(=O)C(Sc3ccccc3)C2=O)cc1` (configuration not stated) [N-Substituted tetramic acid, 91] the value was above 200 µM; for `O=C1CN(Cc2ccccc2)C(=O)C1SCc1cccc(C(F)(F)F)c1` (configuration not stated) [N-Substituted tetramic acid, 92], 212 µM.
The compound `CC(C)CC1NC(=O)C(SCc2cccc(C(F)(F)F)c2)C1=O` (configuration not stated) [Tetramic acid, 25] gave an IC50 of 194 µM.
For the compound `CC(C)CC1NC(=O)C(SCC(=O)NCc2ccc3c(c2)OCO3)C1=O` (configuration not stated) [Tetramic acid, 30], the IC50 stood at 200 µM.
For `CCC(C)C1NC(=O)C(SCc2cccc(C(F)(F)F)c2)C1=O` (configuration not stated) [Tetramic acid, 38] the value was 60 µM; for `CCC(C)C1NC(=O)C(SCc2ccco2)C1=O` (configuration not stated) [Tetramic acid, 43], 200 µM; for `CCC(C)C1NC(=O)C(SCC(=O)NCc2ccc3c(c2)OCO3)C1=O` (configuration not stated) [Tetramic acid, 44], above 200 µM.
The value for `O=C1NC(Cc2ccccc2)C(=O)C1SCc1ccco1` (configuration not stated) [Tetramic acid, 56] was 145 µM.
Regarding `O=C1OC(c2ccccc2)C(=O)C1Sc1ccccc1` (configuration not stated) [Tetramic acid, 72], the IC50 is 105 µM.
The value for `O=C1OC(c2ccccc2)C(=O)C1SCCc1ccccc1` (configuration not stated) [Tetramic acid, 74] was above 200 µM; that for `O=C1OC(CCc2ccccc2)C(=O)C1SCc1cccc(C(F)(F)F)c1` (configuration not stated) [Tetramic acid, 77] was above 200 µM.

For the origin of these results see BindingDB's records for doi:10.1021/cc0600021 (Darmstadt Technical University, 2006).
